# Legend:
# [1] = biological target: T1, HGFA (Homo sapiens, UniProt Q04756); experiment: HGFA competition assay of inhibitor and substrate; assay type: biochemical; conditions: 0, 0.25, 0.5, 1.0 μM inhibitor; Pefachrome
# T1 construct: His6 tag (N); seven amino acid spacer and seven amino acid TEV cleavage site (N); Honey Bee melittin signal peptide (N); made in house; host or cells: High 5 insect cells (baculovirus; virus raised in Sf9)
# T1 sequence (Q04756 373-655): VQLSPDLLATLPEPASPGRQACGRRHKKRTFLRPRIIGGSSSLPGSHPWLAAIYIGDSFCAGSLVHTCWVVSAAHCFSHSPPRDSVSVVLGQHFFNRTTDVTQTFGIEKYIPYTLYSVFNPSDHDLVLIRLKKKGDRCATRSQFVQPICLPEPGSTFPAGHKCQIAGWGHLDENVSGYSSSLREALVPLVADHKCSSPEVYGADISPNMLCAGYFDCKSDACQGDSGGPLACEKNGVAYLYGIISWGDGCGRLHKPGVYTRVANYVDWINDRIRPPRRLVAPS
# Description: From the plots of the mean reaction velocity versus substrate concentration and the Michaelis-Menten enzyme kinetics equation within GraphPad Prism version 6.04 for Windows, the reaction Vmax and subsequent Km for each concentration of inhibitor was determined as shown in the FIG. 1.
# [2] = biological target: T1, HGFA; experiment: Dilution recovery experiments with HGFA; assay type: biochemical; conditions: rapid 1:350 dilution; Boc-QLR-AMC 250 μM
# Description: After incubating for 20 minutes at room temperature, these reactions were diluted rapidly (1:350) in TNC buffer containing 250 μM Boc-QLR-AMC substrate (˜7 times Kin). Activity was monitored by recording the change in fluorescence (excitation at 380 nm and emission at 460 nn) over time in a Biotek Synergy 2 plate reader. GraphPad Prism was used to plot the change in fluorescence over time.
# [3] = tested on: c-MET phosphorylation in MDA-MB-231 cells; experiment: c-MET phosphorylation (Y1234/1235) in MDA-MB-231 cells treated with HGFA processed pro-HGF; assay type: cell-based, human; conditions: pro-HGF/HGFA reactions, read-out: EC50, inhibition of c-MET phosphorylation
# Text: To show the inhibition provided by the tetrapeptide compounds would have effects on cell signaling through c-MET kinase, a phosphorylation assay using the invasive breast cancer cell line, MDA-MB-231 was developed. This cell line has high expression of c-MET and pro-HGFA but not pro-HGF.
# MDA-MB-231 cells were maintained in RPMI medium (Sigma-Aldrich R8758, St. Louis, Mo.) containing 10% fetal bovine serum (Sigma F2442) and 1× Penicillin/Streptomycin (Pen/Strep) antibiotics (Thermo Fisher SV30010). […] After 18 hours, cells were switched to fresh starve media and then treated with HGFA Proteolysis reactions containing 1 nM HGFA, 50 ng pro-HGF and various amounts of inhibitors. […] Lysate aliquots were mixed with reducing SDS gel loading buffer and run on 10% PAGE.
# Immunoblots were performed as described previously, except primary antibodies, anti-phospho cMet (Cell Signaling, CS3077) and anti-total cMet (Cell Signaling, CS3127) were used and diluted in 5% BSA/TBST. Secondary antibodies, HRP-anti rabbit antibody (CS7074) and HRP-anti mouse (CS7076) were used, respectively. All antibodies were used at a 1:1000 dilution. Images were obtained and quantitated using BioRad ChemiDoc MP Imaging System. cMet phosphorylation signals were normalized using the total cMet signals and % inhibition calculated using the ratio of inhibited versus uninhibited HGFA Proteolytic reactions. […]
# [4] = tested on: RON phosphorylation in T47D cells; experiment: RON phosphorylation sandwich ELISA in T47D cells; assay type: cell-based; conditions: HGFA-mediated pro-MSP stimulation
# Description: Detection and quantification of pRON in T47D cells was performed using a sandwich ELISA assay. RON capture antibody (R&D Systems, AF691) was immobilized on high protein binding 96-well plates. Next, cell lysates are added to wells, followed by incubation with an anti-phosphotyrosine-HRP antibody and then addition of a TMB substrate. Optical density of wells was determined by reading plates at 450 nm in a plate reader.
compound,measurement,setting,value
"CC(=O)N[C@@H](CCCCN)C(=O)N[C@@H](CCC(N)=O)C(=O)N[C@@H](CC(C)C)C(=O)N[C@@H](CCCNC(=N)N)C(=O)c1nccs1 [Compound 5, Ac-KQLR(SEQ ID NO: 1)-kt]",mode of inhibition versus substrate,[1],competitive
same,reversibility of HGFA inhibition,[2],reversible inhibitor
"CC(=O)N[C@@H](CCCCN)C(=O)N[C@@H](CCCNC(=N)N)C(=O)N[C@@H](CC(C)C)C(=O)N[C@@H](CCCNC(=N)N)C(=O)c1nccs1 [Compound 5g, Ac-KRLR(SEQ ID NO: 8)-kt]",EC50,[3],180 nM
"N=C(N)c1ccc2cc(OC(=O)c3ccc(N=C(N)N)cc3)ccc2c1 [Nafamostat, reference compound]",RON phosphorylation (pRON),[4],reduces pRON to background levels

# From US11130780B2, “Inhibitors of growth factor activation enzymes” (Washington University, priority 2015, dated 2021)
